Data set [1] addresses T1, 5-HT1A receptors (Homo sapiens, UniProt P08908).
T1 construct: Gibco Biocult; Laboratory, Paisley UK; host or cells: unspecified cells; membrane preparation
T1 sequence (P08908 1-422): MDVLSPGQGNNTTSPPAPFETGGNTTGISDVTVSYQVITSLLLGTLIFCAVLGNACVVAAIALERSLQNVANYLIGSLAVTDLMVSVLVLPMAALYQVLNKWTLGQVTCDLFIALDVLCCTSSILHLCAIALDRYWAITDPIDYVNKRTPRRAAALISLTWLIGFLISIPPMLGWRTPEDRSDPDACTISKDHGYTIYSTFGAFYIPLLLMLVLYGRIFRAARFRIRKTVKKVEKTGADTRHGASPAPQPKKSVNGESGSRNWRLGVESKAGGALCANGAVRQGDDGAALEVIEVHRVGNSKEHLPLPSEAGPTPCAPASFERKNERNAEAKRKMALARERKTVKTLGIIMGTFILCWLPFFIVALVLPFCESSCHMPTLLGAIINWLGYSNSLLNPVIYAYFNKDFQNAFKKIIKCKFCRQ
Briefly: Efficacy: stimulation of [35S]GTPγS binding in a cell membrane preparation. Type of data set: biochemical. The procedure:
Measurement of the Efficacy of the Compounds of the Invention
The cells (Gibco Biocult. Laboratory, Paisley UK) are collected in phosphate buffer (pH=7.4) and centrifuged at 48 000 g for 20 minutes. The centrifugation pellet is homogenized in Hepes (20 mmol, pH=7.4) containing EDTA (10 mmol) and recentrifuged at 48 000×g for 10 minutes. The centrifugation pellet is washed twice in Hepes (10 mmol, pH=7.4) containing EDTA (0.1 mmol). The pellet is stored at −80° C. in portions of 600 to 750 μg of protein. […] The incubation medium contains 0.4 ml of membrane preparation and 0.05 ml of test compound. After incubation for 30 minutes at 25° C., 0.05 ml of [^35S]GTPγS (500 picomol), ([^35S]GTPγS (1100 Ci/mmol), Amersham, Les Ulis France), is added and the mixture incubated for 30 minutes. The reactions are quenched by addition of 3 ml of ice-cold Hepes (20 mmol) containing 3 mmol of MgCl2 and rapid filtration through Whatman GF/B filters. The tubes are rinsed 3 times with 5 ml of Hepes buffer at 25° C. The radioactivity collected on the filter is analyzed by liquid scintillation by adding 4 ml of scintillant liquid (Emulsifier Safe, Packard). […] All the experiments are performed in triplicate.

The target of data set [2] is T2, dopaminergic D2 receptors (Rattus norvegicus, UniProt P61169).
T2 construct: For these experiments, rat striatum is used; from tissue; host or cells: rat striatum homogenate
Kind of data set: Affinity for the D2 receptors, displacement of [3H]YM-09151-2. Type of data set: binding. The settings on record: rat striatum, [3H]YM-09151-2 displacement, mean of at least 3 experiments. The procedure:
Measurement of the affinity of the compounds of the invention for the D2 receptors
For these experiments, rat striatum is used. After thawing the brain in Tris-HCl buffer (50 mmol, pH=7.4) at 25° C., the striatum is removed and homogenized in 40 volumes of buffer maintained at 4° C. The homogenate is centrifuged at 20 000×g for 10 minutes, and the centrifugation pellet is suspended in the same volume of buffer and recentrifuged. The final pellet is suspended in cold Tris-HCl reaction buffer at 25° C. containing 120 mmol of NaCl and 5 mmol of KCl. The final concentration of tissue in the incubation medium is 2 mg/tube. […] The nonspecific binding is defined by using […] of (+)-butaclamol. The reaction tubes are incubated at 23° C. for 60 minutes and their content is then rapidly filtered through Whatman GF/B filters, and the tubes are rinsed twice with 5 ml of Tris-HCl buffer at 25° C. The radioactivity collected on the filter is analyzed by liquid scintillation, by adding 4 ml of scintillant liquid (Emulsifier Safe, Packard). All the experiments are performed in triplicate.

Data set [3] addresses T3, 5-HT1A receptors (Rattus norvegicus, UniProt P19327).
T3 construct: For these experiments, rat cerebral cortices are used; from tissue; host or cells: rat cerebral cortex homogenate
T3 sequence (P19327 1-422): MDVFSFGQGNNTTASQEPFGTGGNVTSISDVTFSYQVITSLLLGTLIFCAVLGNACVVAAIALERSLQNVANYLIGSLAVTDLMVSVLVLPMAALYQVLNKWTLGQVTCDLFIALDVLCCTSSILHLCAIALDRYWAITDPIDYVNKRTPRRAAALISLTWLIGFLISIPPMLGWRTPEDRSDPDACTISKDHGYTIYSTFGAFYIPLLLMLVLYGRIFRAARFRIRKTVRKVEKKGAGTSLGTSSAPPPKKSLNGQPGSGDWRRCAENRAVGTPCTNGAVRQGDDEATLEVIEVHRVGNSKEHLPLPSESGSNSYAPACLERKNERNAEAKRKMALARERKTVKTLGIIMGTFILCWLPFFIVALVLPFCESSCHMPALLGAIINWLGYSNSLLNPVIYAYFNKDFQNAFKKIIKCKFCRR
Kind of data set: Affinity for the 5-HT1A receptors, displacement of [3H]8-OH-DPAT. It is filed as binding. The procedure:
Measurement of the affinity of the compounds in the invention for the 5-HT1A receptors
For these experiments, rat cerebral cortices are used. After thawing the brain in Tris-HCl buffer (50 mmol, pH=7.4) at 25° C., the cerebral cortex is removed and homogenized in 20 volumes of buffer maintained at 4° C. The homogenate is centrifuged at 39 000×g for 10 minutes, and the centrifugation pellet is suspended in the same volume of buffer and recentrifuged. After resuspending under the same conditions, the homogenate is incubated for 10 minutes at 37° C. and then recentrifuged. The final pellet is suspended in cold Tris-HCl reaction buffer (50 mmol) at 25° C. containing […] of pargyline, 4 mmol of CaCl2 and 0.10% of ascorbic acid. The final concentration of tissue in the incubation medium is 10 mg/tube.
The nonspecific binding is defined by using […] of serotonin. The reaction tubes are incubated at 23° C. for 30 minutes and their content is then rapidly filtered under vacuum through Whatman GF/B filters, and the tubes are rinsed with twice 5 ml of tris-HCl buffer at 25° C. The radio-activity collected on the filter is analyzed by liquid scintillation, by adding 4 ml of scintillant liquid (Emulsifier Safe, Packard, Warrenville, USA). All the experiments are performed in triplicate.

Setting [4] is: [35S]GTPγS binding, maximum stimulation defined with serotonin (10 μmmol), read-out: % stimulation Maximum effect.

Experimental findings from patent publication US7547700B2, “Aryl-[4-halo-4(heteroarylmethylamino)-methyl]-piperidin-1-1yl]-methanone derivatives, methods for production and use thereof as medicaments” (PIERRE Fabre Medicament, priority 2002, dated 2009) are described below.

SMILES strings stand for the structures. Where a name gives a salt, the structure may show the parent alone. Read-outs that look alike come from different tables or passages of the source.

T2 sequence (P61169 whole entry): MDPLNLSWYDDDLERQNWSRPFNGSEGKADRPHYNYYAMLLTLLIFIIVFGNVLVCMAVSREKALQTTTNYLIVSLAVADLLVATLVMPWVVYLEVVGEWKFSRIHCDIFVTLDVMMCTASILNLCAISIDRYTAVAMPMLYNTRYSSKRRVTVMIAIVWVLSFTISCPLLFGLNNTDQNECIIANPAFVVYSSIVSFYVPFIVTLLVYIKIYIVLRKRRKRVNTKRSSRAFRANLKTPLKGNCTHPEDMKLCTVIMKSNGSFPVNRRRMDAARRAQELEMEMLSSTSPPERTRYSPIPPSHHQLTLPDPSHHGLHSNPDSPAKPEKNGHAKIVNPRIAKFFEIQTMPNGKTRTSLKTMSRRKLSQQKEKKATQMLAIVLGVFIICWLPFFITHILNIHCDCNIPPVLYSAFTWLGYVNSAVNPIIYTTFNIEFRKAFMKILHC

Regarding `Cc1ccc(CNCC2(F)CCN(C(=O)c3ccc(F)c(Cl)c3)CC2)nn1` (as salt: hydrochloride) [Compound 1-7, (3-chloro-4-fluorophenyl)-(4-fluoro-4-{[(6-methylpyridazin-3-ylmethyl)amino]-methyl}piperidin-1-yl)methanone], the melting point is 205 °C (dec.).

In turn, `O=C(c1ccc(F)c(Cl)c1)N1CCC(F)(CNCc2ccc(CF)cn2)CC1` (as salt: fumarate) [Compound 1-4, (3-chloro-4-fluorophenyl)-(4-fluoro-4-{[(5-fluoromethylpyridin-2-ylmethyl)amino]-methyl}piperidin-1-yl)methanone] displayed a melting point of 157 to 159 °C.

On to `Cc1ccc(CNCC2(F)CCN(C(=O)c3ccc(F)c(Cl)c3)CC2)nn1` [Compound 1-7, (3-chloro-4-fluorophenyl)-(4-fluoro-4-{[(6-methylpyridazin-3-ylmethyl)amino]-methyl}piperidin-1-yl)methanone], for which the Emax in data set [1] (setting [4]) is 90%. The values for the Ki in data set [2] (read-out: D2 pKi (converted)) and in data set [3] (read-out: 5-HT1A pKi (converted)) were greater than 10000 nM and 5.01 nM, respectively. For the same compound, the “Selectivity 5-HT1A/D2” value in data set [3] (ratio of 5-HT1A to D2 affinity) is on record as greater than 1000.

`O=C1CC2(CCCC2)CC(=O)N1CCCCN1CCN(c2ncccn2)CC1` [buspirone]: the Emax in data set [1] (setting [4]) came out at 22%.

With `CCCN(CCC)C1CCc2cccc(O)c2C1` (centres unmarked) [Compound 8-OH-DPAT, 8-hydroxy-2-di-n-propylaminotetralin, reference compound], the Emax in data set [1] (read-out: % stimulation Maximum effect, [35S]GTPγS binding, maximum stimulation defined with serotonin (10 μmmol)) is 41%. In addition, in data set [2] (D2 pKi), the Ki was 631 nM.

Consider `Cc1ccc(CNCC2(F)CCN(C(=O)c3ccc(F)c(F)c3)CC2)nc1` (as salt: fumarate) [Compound 1-11, (3,4-difluorophenyl)-(4-fluoro-4-{[(5-methylpyridin-2-ylmethyl)amino]methyl}piperidin-1-yl)methanone], for which the melting point worked out at 158 °C.

In turn, `Cc1ccc(CNCC2(F)CCN(C(=O)c3ccc(F)c(C#N)c3)CC2)nc1` (as salt: fumarate) [Compound 1-13, (3-cyano-4-fluorophenyl)-(4-fluoro-4-{[(5-methylpyridin-2-ylmethyl)amino]methyl}piperidin-1-yl)methanone] came in with a melting point of 175 °C.

`Cc1cnc(CNCC2(F)CCN(C(=O)c3ccc(Cl)c(Cl)c3)CC2)nc1` (as salt: fumarate) [Compound 1-6, (3,4-dichlorophenyl)-(4-fluoro-4-{[(5-methylpyrimidin-2-ylmethyl)amino]-methyl}piperidin-1-yl)methanone] came in with a melting point of 161 °C.

`O=C(c1ccc(F)c(Cl)c1)N1CCC(F)(CNCc2ccc(O)cn2)CC1` (as salt: fumarate) [Compound 1-1, (3-chloro-4-fluorophenyl)(4-fluoro-4-{[(5-hydroxypyridin-2-ylmethyl)amino]methyl}-piperidin-1-yl)methanone] came in with a melting point of 225 to 227 °C.

`N#Cc1ccc(CNCC2(F)CCN(C(=O)c3ccc(F)c(Cl)c3)CC2)nc1` (as salt: fumarate) [Compound 1-2, (3-chloro-4-fluorophenyl)-(4-fluoro-4-{[(5-cyanopyridin-2-ylmethyl)amino]methyl}-piperidin-1-yl)methanone] gave a melting point of 170 to 172 °C.

`Cc1ccc(CNCC2(F)CCN(C(=O)c3ccc(Cl)c(F)c3)CC2)nc1` (as salt: fumarate) [Compound 1-12, (3-fluoro-4-chlorophenyl)-(4-fluoro-4-{[(5-methylpyridin-2-ylmethyl)amino]methyl}piperidin-1-yl)methanone] displayed a melting point of 150 °C.

As for `Cc1ccc(CNCC2(Cl)CCN(C(=O)c3ccc(F)c(Cl)c3)CC2)nc1` (as salt: hydrochloride) [Compound 1-9, (3-chloro-4-fluorophenyl)-(4-chloro-4-{[(5-methylpyridin-2-ylmethyl)amino]-methyl}piperidin-1-yl)methanone], the melting point was 190 °C (dec.).

With `Cc1ccc(CNCC2(F)CCN(C(=O)c3cccc(C(F)(F)F)c3)CC2)nc1` (as salt: hydrochloride) [Compound 1-14, (3-trifluoromethylphenyl)-(4-fluoro-4-{[(5-methylpyridin-2-ylmethyl)amino]methyl}piperidin-1-yl)methanone], the melting point was determined as 172 °C.

For the compound `CCCN(CCC)C1CCc2cccc(O)c2C1` (single isomer, unassigned; (+)) [(+)-8-OH-DPAT, reference compound], the “% stimulation Maximum effect” value in data set [1] ([35S]GTPγS binding, maximum stimulation defined with serotonin (10 μmmol)) was 59%. Also, the Ki in data set [2] (D2 pKi) was 794 nM.

Turning to `Cc1ccc(CNCC2(F)CCN(C(=O)c3ccc(Cl)c(Cl)c3)CC2)nn1` (as salt: oxalate) [Compound 1-8, (3,4-dichlorophenyl)-(4-fluoro-4-{[(6-methylpyridazin-3-ylmethyl)amino]-methyl}piperidin-1-yl)methanone], the melting point was 203 °C (dec.).

As for `Cc1ccc(CNCC2(F)CCN(C(=O)c3ccc(F)c(Cl)c3)CC2)nc1` [Compound I-66, (3-chloro-4-fluorophenyl)(4-fluoro-4-{[(5-methylpyridin-2-ylmethyl)-amino]methyl}piperidin-1-yl)methanone, reference compound], the Emax in data set [1] (setting [4]) was 75%. Besides, the Ki in data set [3] was 0.794 nM.

Compound `O=C(c1ccc(F)c(Cl)c1)N1CCC(F)(CNCc2ccc(Cl)cn2)CC1` (as salt: fumarate) [Compound 1-3, (3-chloro-4-fluorophenyl)-(4-fluoro-4-{[(5-chloropyridin-2-ylmethyl)amino]methyl}piperidin-1-yl)methanone] showed a melting point of 160 to 162 °C.
